Assay results taken from patent publication US8846698B2, “Pyrrolo[2,3-d]pyrimidine tropomysin-related kinase inhibitors” (Pfizer Limited, priority 2011, dated 2014).

Molecular target: TRKA (Homo sapiens (Human), UniProt P04629)
Test: Isolated TRK enzyme assay (HTRF KinEASE-TK), TRKA
Assay type: biochemical
Conditions: read-out: Trka enzyme (IC50)

Chain of TRKA (P04629 441-796): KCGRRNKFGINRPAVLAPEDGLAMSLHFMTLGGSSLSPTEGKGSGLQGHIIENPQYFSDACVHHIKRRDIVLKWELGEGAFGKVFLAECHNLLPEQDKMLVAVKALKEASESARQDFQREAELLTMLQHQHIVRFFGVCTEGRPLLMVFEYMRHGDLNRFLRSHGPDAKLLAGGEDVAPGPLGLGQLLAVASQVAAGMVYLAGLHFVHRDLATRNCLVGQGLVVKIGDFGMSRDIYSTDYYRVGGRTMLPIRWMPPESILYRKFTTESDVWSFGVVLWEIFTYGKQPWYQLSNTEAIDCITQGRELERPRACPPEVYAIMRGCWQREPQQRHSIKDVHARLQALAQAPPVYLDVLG

Row | IC50 [nM] | Structure (SMILES)
1 | 230 | CC(C)n1cc(C(=O)c2cncc(NC(=O)Cc3c[nH]c4ccc(O)cc34)c2)c2cncnc21 [Example 158, 2-(5-hydroxy-1H-indol-3-yl)-N-{5-[(7-isopropyl-7H-pyrrolo[2,3-d]pyrimidin-5-yl)carbonyl]pyridin-3-yl}acetamide]
2 | 234 | CC(C)n1cc(C(=O)c2cncc(NC(=O)Cc3c[nH]c4nccnc34)c2)c2cncnc21 [Example 159, N-{5-[(7-isopropyl-7H-pyrrolo[2,3-d]pyrimidin-5-yl)carbonyl]pyridin-3-yl}-2-(5H-pyrrolo[2,3-b]pyrazin-7-yl)acetamide]
3 | 1080 | Cc1cc2ncn(CC(=O)Nc3cncc(C(=O)c4cn(C(C)C)c5ncncc45)c3)c2cc1C [Example 160, 2-(5,6-dimethyl-1H-benzimidazol-1-yl)-N-{5-[(7-isopropyl-7H-pyrrolo[2,3-d]pyrimidin-5-yl)carbonyl]pyridin-3-yl}acetamide]
4 | 6270 | CC(C)n1cc(C(=O)c2cncc(NC(=O)Cn3cc(-c4ccccn4)nn3)c2)c2cncnc21 [Example 161, N-{5-[(7-isopropyl-7H-pyrrolo[2,3-d]pyrimidin-5-yl)carbonyl]pyridin-3-yl}-2-(4-pyridin-2-yl-1H-1,2,3-triazol-1-yl)acetamide]
5 | 324 | Cc1cn(CC(=O)Nc2cncc(C(=O)c3cn(C(C)C)c4ncncc34)c2)nn1 [Example 162, N-{5-[(7-isopropyl-7H-pyrrolo[2,3-d]pyrimidin-5-yl)carbonyl]pyridin-3-yl}-2-(4-methyl-1H-1,2,3-triazol-1-yl)acetamide]
6 | 1840 | Cc1[nH]nc(-c2ccccc2)c1CC(=O)Nc1cncc(C(=O)c2cn(C(C)C)c3ncncc23)c1 [Example 163, N-{5-[(7-isopropyl-7H-pyrrolo[2,3-d]pyrimidin-5-yl)carbonyl]pyridin-3-yl}-2-(5-methyl-3-phenyl-1H-pyrazol-4-yl)acetamide]
7 | 133 | CSc1ncc(CC(=O)Nc2cncc(C(=O)c3cn(C(C)C)c4ncncc34)c2)cn1 [Example 164, N-{5-[(7-isopropyl-7H-pyrrolo[2,3-d]pyrimidin-5-yl)carbonyl]pyridin-3-yl}-2-[2-(methylthio)pyrimidin-5-yl]acetamide]
8 | 3400 | CC(C)n1cc(C(=O)c2cncc(NC(=O)Cc3ncccn3)c2)c2cncnc21 [Example 165, N-{5-[(7-isopropyl-7H-pyrrolo[2,3-d]pyrimidin-5-yl)carbonyl]pyridin-3-yl}-2-pyrimidin-2-ylacetamide]
9 | 3470 | Cn1cc(C(=O)c2cncc(NC(=O)Cc3cc(F)ccc3C(F)(F)F)c2)c2cncnc21 [Example 167, 2-[5-Fluoro-2-(trifluoromethyl)phenyl]-N-{5-[(7-methyl-7H-pyrrolo[2,3-d]pyrimidin-5-yl)carbonyl]pyridin-3-yl}acetamide]
10 | 702 | Cc1cccc(CC(=O)Nc2cncc(C(=O)c3cn(C)c4ncncc34)c2)c1 [Example 168, 2-(3-methylphenyl)-N-{5-[(7-methyl-7H-pyrrolo[2,3-d]pyrimidin-5-yl)carbonyl]pyridin-3-yl}acetamide]
11 | 3100 | Cn1cc(C(=O)c2cncc(NC(=O)Cc3ccccc3C(F)(F)F)c2)c2cncnc21 [Example 169, N-{5-[(7-methyl-7H-pyrrolo[2,3-d]pyrimidin-5-yl)carbonyl]pyridin-3-yl}-2-[2-(trifluoromethyl)phenyl]acetamide]
12 | 3100 | Cn1cc(C(=O)c2cncc(NC(=O)Cc3cc(F)cc(F)c3)c2)c2cncnc21 [Example 170, 2-(3,5-difluorophenyl)-N-{5-[(7-methyl-7H-pyrrolo[2,3-d]pyrimidin-5-yl)carbonyl]pyridin-3-yl}acetamide]
13 | 1280 | Cn1cc(C(=O)c2cncc(NC(=O)Cc3c(F)cc(F)cc3F)c2)c2cncnc21 [Example 171, N-{5-[(7-methyl-7H-pyrrolo[2,3-d]pyrimidin-5-yl)carbonyl]pyridin-3-yl}-2-(2,4,6-trifluorophenyl)acetamide]
14 | 3840 | Cn1cc(C(=O)c2cncc(NC(=O)Cc3c(F)ccc(F)c3F)c2)c2cncnc21 [Example 172, N-{5-[(7-methyl-7H-pyrrolo[2,3-d]pyrimidin-5-yl)carbonyl]pyridin-3-yl}-2-(2,3,6-trifluorophenyl)acetamide]
15 | 9810 | Cn1cc(C(=O)c2cncc(NC(=O)Cc3ccc(S(C)(=O)=O)cc3)c2)c2cncnc21 [Example 173, N-{5-[(7-methyl-7H-pyrrolo[2,3-d]pyrimidin-5-yl)carbonyl]pyridin-3-yl}-2-[4-(methylsulfonyl)phenyl]acetamide]
16 | 210 | Cn1cc(C(=O)c2cncc(NC(=O)Cc3ccc(C(F)(F)F)c(F)c3)c2)c2cncnc21 [Example 174, 2-[3-fluoro-4-(trifluoromethyl)phenyl]-N-{5-[(7-methyl-7H-pyrrolo[2,3-d]pyrimidin-5-yl)carbonyl]pyridin-3-yl}acetamide]
17 | 2590 | COc1cccc(CC(=O)Nc2cncc(C(=O)c3cn(C)c4ncncc34)c2)c1 [Example 175, 2-(3-methoxyphenyl)-N-{5-[(7-methyl-7H-pyrrolo[2,3-d]pyrimidin-5-yl)carbonyl]pyridin-3-yl}acetamide]
18 | 165 | Cn1cc(C(=O)c2cncc(NC(=O)Cc3cccc(OC(F)(F)F)c3)c2)c2cncnc21 [Example 176, N-{5-[(7-methyl-7H-pyrrolo[2,3-d]pyrimidin-5-yl)carbonyl]pyridin-3-yl}-2-[3-(trifluoromethoxy)phenyl]acetamide]

Row | IC50 [nM] | Structure (SMILES)
19 | 3100 | Cn1cc(C(=O)c2cncc(NC(=O)Cc3cc(F)cc(F)c3F)c2)c2cncnc21 [Example 177, N-{5-[(7-methyl-7H-pyrrolo[2,3-d]pyrimidin-5-yl)carbonyl]pyridin-3-yl}-2-(2,3,5-trifluorophenyl)acetamide]
20 | 3100 | Cc1ccc2ccc(CC(=O)Nc3cncc(C(=O)c4cn(C)c5ncncc45)c3)cc2n1 [Example 178, N-{5-[(7-methyl-7H-pyrrolo[2,3-d]pyrimidin-5-yl)carbonyl]pyridin-3-yl}-2-(2-methylquinolin-7-yl)acetamide]
21 | 3080 | Cn1cc(C(=O)c2cncc(NC(=O)Cc3ccccc3)c2)c2cncnc21 [Example 179, N-{5-[(7-methyl-7H-pyrrolo[2,3-d]pyrimidin-5-yl)carbonyl]pyridin-3-yl}-2-phenylacetamide]
22 | 3100 | Cn1cc(C(=O)c2cncc(NC(=O)Cc3c(F)cccc3Cl)c2)c2cncnc21 [Example 180, 2-(2-chloro-6-fluorophenyl)-N-{5-[(7-methyl-7H-pyrrolo[2,3-d]pyrimidin-5-yl)carbonyl]pyridin-3-yl}acetamide]
23 | 3100 | COc1ccc(CC(=O)Nc2cncc(C(=O)c3cn(C)c4ncncc34)c2)cc1 [Example 181, 2-(4-methoxyphenyl)-N-{5-[(7-methyl-7H-pyrrolo[2,3-d]pyrimidin-5-yl)carbonyl]pyridin-3-yl}acetamide]
24 | 543 | Cn1cc(C(=O)c2cncc(NC(=O)Cc3ccc(SC(F)(F)F)cc3)c2)c2cncnc21 [Example 182, N-{5-[(7-methyl-7H-pyrrolo[2,3-d]pyrimidin-5-yl)carbonyl]pyridin-3-yl}-2-{4-[(trifluoromethyl)thio]phenyl}acetamide]
25 | 1850 | Cn1cc(C(=O)c2cncc(NC(=O)Cc3ccc(-c4ccccc4)cc3)c2)c2cncnc21 [Example 183, 2-biphenyl-4-yl-N-{5-[(7-methyl-7H-pyrrolo[2,3-d]pyrimidin-5-yl)carbonyl]pyridin-3-yl}acetamide]
26 | 579 | Cn1cc(C(=O)c2cncc(NC(=O)Cc3cc(F)c(F)cc3F)c2)c2cncnc21 [Example 184, N-{5-[(7-methyl-7H-pyrrolo[2,3-d]pyrimidin-5-yl)carbonyl]pyridin-3-yl}-2-(2,4,5-trifluorophenyl)acetamide]
27 | 67.4 | Cn1cc(C(=O)c2cncc(NC(=O)Cc3cccc(SC(F)(F)F)c3)c2)c2cncnc21 [Example 185, N-{5-[(7-methyl-7H-pyrrolo[2,3-d]pyrimidin-5-yl)carbonyl]pyridin-3-yl}-2-{3-[(trifluoromethyl)thio]phenyl}acetamide]
28 | 719 | Cc1ccc(CC(=O)Nc2cncc(C(=O)c3cn(C)c4ncncc34)c2)cc1 [Example 186, 2-(4-methylphenyl)-N-{5-[(7-methyl-7H-pyrrolo[2,3-d]pyrimidin-5-yl)carbonyl]pyridin-3-yl}acetamide]
29 | 2630 | Cn1cc(C(=O)c2cncc(NC(=O)Cc3cc(F)c(F)c(F)c3)c2)c2cncnc21 [Example 187, N-{5-[(7-methyl-7H-pyrrolo[2,3-d]pyrimidin-5-yl)carbonyl]pyridin-3-yl}-2-(3,4,5-trifluorophenyl)acetamide]
30 | 277 | Cc1ccc(CC(=O)Nc2cncc(C(=O)c3cn(C)c4ncncc34)c2)c(C)c1 [Example 188, 2-(2,4-dimethylphenyl)-N-{5-[(7-methyl-7H-pyrrolo[2,3-d]pyrimidin-5-yl)carbonyl]pyridin-3-yl}acetamide]
31 | 836 | Cn1cc(C(=O)c2cncc(NC(=O)Cc3ccc4c(c3)CCO4)c2)c2cncnc21 [Example 189, 2-(2,3-dihydro-1-benzofuran-5-yl)-N-{5-[(7-methyl-7H-pyrrolo[2,3-d]pyrimidin-5-yl)carbonyl]pyridin-3-yl}acetamide]
32 | 820 | Cn1cc(C(=O)c2cncc(NC(=O)Cc3cc(F)ccc3F)c2)c2cncnc21 [Example 190, 2-(2,5-difluorophenyl)-N-{5-[(7-methyl-7H-pyrrolo[2,3-d]pyrimidin-5-yl)carbonyl]pyridin-3-yl}acetamide]
33 | 873 | Cn1cc(C(=O)c2cncc(NC(=O)Cc3ccc(F)cc3F)c2)c2cncnc21 [Example 191, 2-(2,4-difluorophenyl)-N-{5-[(7-methyl-7H-pyrrolo[2,3-d]pyrimidin-5-yl)carbonyl]pyridin-3-yl}acetamide]
34 | 173 | Cn1cc(C(=O)c2cncc(NC(=O)Cc3cccc(C(F)(F)F)c3F)c2)c2cncnc21 [Example 192, 2-[2-fluoro-3-(trifluoromethyl)phenyl]-N-{5-[(7-methyl-7H-pyrrolo[2,3-d]pyrimidin-5-yl)carbonyl]pyridin-3-yl}acetamide]
35 | 3570 | Cn1cc(C(=O)c2cncc(NC(=O)Cc3c(F)cccc3F)c2)c2cncnc21 [Example 193, 2-(2,6-difluorophenyl)-N-{5-[(7-methyl-7H-pyrrolo[2,3-d]pyrimidin-5-yl)carbonyl]pyridin-3-yl}acetamide]
